US20220184222A1, “BICYCLE TOXIN CONJUGATES AND USES THEREOF” (BicycleTx Limited, priority 2019, published 2022)
Starred links: 1 amine or outer side, 2 acyl side, 3 side chain; linkers in the order of their positions; H or OH if unused. Non-standard residues stand in square brackets, D forms with d. Residues, ends and D or L forms follow the SMILES beside them. *: point of attachment. Dolaproine = CO[C@@H]([C@@H]1CCCN1)[C@@H](C)C(=O)O; Dil = CC[C@H](C)[C@H](NC)[C@@H](CC(=O)O)OC; PABC = O=C(OCc1ccc(N[*:1])cc1)[*:2]; X1 = O=C(CCCC(=O)*)ON1C(=O)CCC1=O; X2 = C[C@@H](N*)[C@@H](O)c1ccccc1; Cit = NC(=O)NCCC[C@H](N)C(=O)O; NMeV = CN[C@H](C(=O)O)C(C)C

System: CTG-2011
Test: Champions TumorGraft NSCLC PDX efficacy, model CTG-2011
Type: in vivo, Mus musculus
Description: Mice were implanted subcutaneously into the left flank with tumor fragments from one of the various models. After tumors grew to an average of 150-300 mm^3, mice were treated by IV administration Q7Dx4 (n=2) with vehicle or 3 mg/kg of BT5528. Effects on tumor growth were evaluated by measuring percent tumor growth inhibition (% TGI), and the number of complete responders (CR), partial responders (PR), and tumor-free survivors (TFS). Tolerability was assessed by body weight loss, lethality, and clinical signs of adverse treatment-related side effects. Tumor volumes and body weights were measured twice a week.
Dosing solutions of BT5528 […] were pre-formulated. These dosing solutions were stored at −80° C. in the dark. On each day of dosing, a frozen aliquot of each test agent was thawed, stored at 2-8° C. and used for dosing.
The animals used in this study are described below: • Species: Mus musculus • Strain: Athymic Nude-Foxn1^nu (immune-compromised) • Source: Envigo (Indianapolis, Ind., USA) • Number of animals per group: 2 • Age and sex: At least 6-8 weeks of age at start of dosing, female • Weight: At least 18 grams at start of dosing • Acclimation period: 3 days
Stock mice were implanted with tumor cells from Champions TumorGraft® models CTG-0160, CTG-0170, CTG-0178, CTG-0192, CTG-0363, CTG-0808, CTG-0838, CTG-0848, CTG-1212, CTG-1502, CTG-1535, CTG-2011, CTG-2393, CTG-2539 or CTG-2540. After the tumors reached 1000-1500 mm^3, they were harvested and the tumor fragments (approximately 5×5×5 mm^3) were implanted SC in the left flank of the female study mice. Each animal was implanted with a specific passage lot and documented. Tumor growth was monitored twice a week using digital calipers and the tumor volume (TV) was calculated using the formula (0.52×[length×width^2]). When the TV reached an average volume of 150-300 mm^3, animals were matched by tumor size and assigned into Vehicle Control and treatment groups (n=2/group) and dosing was initiated on Day 0. After the initiation of dosing on Day 0, animals were weighed twice per week using a digital scale and TV was measured twice per week and also on the final day of study. The study was completed when the mean tumor volume of Vehicle Control reached 1500 mm^3 or up to Day 60, whichever occurred first.
Beginning on Day 0, animals were observed daily and weighed twice weekly using a digital scale; data including individual and mean gram weights, mean percent weight change versus Day 0 (% vD0) were recorded for each group and % vD0 plotted at study completion. […] Treatment resulting in a mean % vD0>20% and/or >10% mortality was considered above the maximum tolerated dose. Maximum mean % vD0 (weight nadir) for each treatment group was reported at study completion.
Inhibition of tumor growth was determined by calculating the percent TGI (100%×[1−(final MTV−initial MTV of a treated group)/(final MTV−initial MTV of the control group)]). Treatment started on Day 0.
Additional endpoints used to evaluate efficacy were: the number of complete responders (CR), partial responders (PR), and tumor-free survivors (TFS). PRs were considered exclusive of CRs, as were TFS.
Statistical analyses of anti-tumor efficacy were performed using one-way ANOVA followed by Dunnett's multiple comparisons test (GraphPad Prism version 8.2.0). Significant p-values=<0.05.
Animals were dosed according to the schedule on Table 7-1. The Vehicle Control reached endpoint on Day 18 and the study was terminated on Day 28.

[1] = CTG-2011, 3 mg/kg IV Q7Dx4, Day 0-28

CC[C@H](C)[C@@H]([C@@H](CC(=O)N1CCC[C@H]1[C@H](OC)[C@@H](C)C(=O)N[C@H](C)[C@@H](O)c1ccccc1)OC)N(C)C(=O)[C@@H](NC(=O)[C@H](C(C)C)N(C)C(=O)OCc1ccc(NC(=O)[C@H](CCCNC(N)=O)NC(=O)[C@@H](NC(=O)CCCC(=O)ON2C(=O)CCC2=O)C(C)C)cc1)C(C)C [BT5528] (X1-V[Cit][PABC][NMeV]V[Dil][Dolaproine]-X2)
MTV (mean tumor volume) (3 mg/kg IV Q7Dx4, Day 18): 826±48 mm^3
TGI (3 mg/kg IV Q7Dx4, Day 18): 57%
# CR (complete responders) [1]: 0 /0/0
# PR (partial responders) [1]: 0 /0/0
# TFS (tumor-free survivors) [1]: 0 /0/0
% TGI (CTG-2011, 3 mg/kg IV Q7Dx4, Day 18): 57%
Day 18 Tumor Volume Mean TV ± SEM (CTG-2011, BT5528 3 mg/kg IV Q7Dx4, Day 18, n=2): 826 ± 48 mm^3
